Test results: PubChem BioAssay AID2060609 (Molecular Pharmacology Branch, DTP, NCI, 2025)

System: 855422-203-R-J1-PDC complex spheroids, viability
Assay: Anticancer human tumor 855422-203-R-J1-PDC patient-derived bladder carcinoma cell line growth inhibition [CLK]
Conditions: for IC50: curve of first compound; for viability, T/C: stronger effect = lower value
Text: A high-throughput screen of multi-cell type tumor spheroids was designed to identify active combinations of […] and targeted small molecules. Complex spheroids include a stromal component modeled by human endothelial cells (HUVEC) and fibroblasts modeled by human mesenchymal stem cells (MSCs). The concentration ranges selected for each drug and investigational agent were based upon clinically achievable concentrations if the clinical Cmax of the agent was known.
Compounds. The drugs and investigational agents: cirtuvivint (SM08502; NSC835563), CC-671 (NSC850746), vemurafenib (NSC761431), tapotoclax (NSC804041), sotorasib (NSC818433), adagrasib (NSC831453), MRTX-1133 (NSC836407), BAY2416964 (NSC825713), copanlisib (NSC816437), inavolisib (NSC800729), abemaciclib (NSC768073), osimertinib (NSC779217), entinostat (NSC756642), eltanexor (KPT-8602, NSC794443), venetoclax (NSC766270), ceralasertib (NSC777638), bortezomib (NSC756655), olaparib (NSC753686), talazoparib (NSC767125), alisertib (NSC759677), peposertib (NSC802822), gemcitabine (NSC613327), 5-fluorouracil (NSC19893), SN-38 (NSC673596), oxaliplatin (NSC266046), paclitaxel (NSC125973), and doxorubicin (NSC123127), were obtained from the National Cancer Institute (NCI) Developmental Therapeutics Program Chemical Repository. The FDA-approved anticancer drug set is available from the Developmental Therapeutics Program at https://dtp.cancer.gov/organization/dscb/obtaining/available plates.htm. […] The stock solutions were prepared in dimethyl sulfoxide (DMSO, Sigma-Aldrich, St. Louis, MO, cat. D2650), except for the platinum complexes which were prepared in saline (Quality Biological, Gaithersburg, MD, cat. 114-055-101), at 800-fold the tested concentration and stored at -70 degrees C prior to their use. All drugs and investigational agents were tested over a range starting from a high concentration at or near the clinical Cmax and decreasing in half-log increments. If the clinical Cmax for an agent had not been determined, the highest concentration tested was 10 microM.
Cell Culture. All cells were maintained in an incubator at 37 degrees C and 5% CO2 with 95% humidity. The PDC lines were cultured according to standard operating procedures established by the NCI PDMR. Briefly, all PDCs were thawed and cultured in Matrigel-coated flasks prepared with a working solution of 1X Ham's F-12 nutrient mix, without supplementation (Invitrogen, Waltham, MA, cat. 11765054), 100 U/mL penicillin-streptomycin (Invitrogen, cat. 15140122), and 2.5% Matrigel (Corning Inc., Corning, NY, cat. 354248) for the first three passages. The 947758-054-R-J2-PDC line was cultured in 6B/Colon 1A media, which includes advanced DMEM/F-12 (Thermo Fisher Scientific, cat. 12634028), 10 mM HEPES (Thermo Fisher Scientific, cat. 15630080), 1X GlutaMAX supplement (Thermo Fisher Scientific, cat. 35050061), 0.1 mg/mL primocin (InvivoGen, cat. ant-pm-2), 10% defined fetal bovine serum, heat inactivated (HyClone Laboratories Inc., cat. SH30070.03HI), 1.25 mM N-Acetyl-L-cysteine (Sigma-Aldrich, cat. A9165), 10 mM nicotinamide (Sigma-Aldrich, cat. N0636), 1X B-27 supplement (Thermo Fisher Scientific, cat. 17504044), 1X N-2 supplement (Thermo Fisher Scientific, cat. 17502048), and 10 microM Y-27632 dihydrochloride (Tocris Bioscience, cat. 1254). The 876862-298-R-J1-PDC was cultured in 6E media, which includes all 6B/Colon 1A media components plus 50% L-WRN conditioned media (ATCC, cat. CRL-3276), 50 ng/mL recombinant human EGF recombinant protein (hEGF; Thermo Fisher Scientific, cat. PHG0311), 10 ng/mL recombinant human fibroblast growth factor 10 (hGFG-10; PeproTech, cat. 100-26), 1 ng/mL recombinant human fibroblast growth factor 2 (hFGF-2; PeproTech, cat. 100-18B), and 1 µM prostaglandin E2 (PGE2; Tocris, cat. 2296). The 227483-062-R1-J1-PDC line was cultured in Panc media, containing all 6E components except hFGF-2, with the addition of 500 nM SB-431542 (Selleckchem, cat. S1067) and 10 nM gastrin (Tocris, cat. 3006). […]

[1] = second compound 0.0316 µM, first compound 0.0316 µM
[2] = second compound 0.0316 µM, first compound 0.1 µM
[3] = second compound 0.0316 µM, first compound 0.316 µM
[4] = second compound 0.0316 µM, first compound 1 µM
[5] = second compound 0.0316 µM, first compound 3.16 µM
[6] = second compound 0.0316 µM, first compound 10 µM
[7] = second compound 0.1 µM, first compound 0.0316 µM
[8] = second compound 0.1 µM, first compound 0.1 µM
[9] = second compound 0.1 µM, first compound 0.316 µM
[10] = second compound 0.1 µM, first compound 1 µM
[11] = second compound 0.1 µM, first compound 3.16 µM
[12] = second compound 0.1 µM, first compound 10 µM
[13] = second compound 0.316 µM, first compound 0.0316 µM
[14] = second compound 0.316 µM, first compound 0.1 µM
[15] = second compound 0.316 µM, first compound 0.316 µM
[16] = second compound 0.316 µM, first compound 1 µM
[17] = second compound 0.316 µM, first compound 3.16 µM
[18] = second compound 0.316 µM, first compound 10 µM
[19] = second compound 1 µM, first compound 0.0316 µM
[20] = second compound 1 µM, first compound 0.1 µM
[21] = second compound 1 µM, first compound 0.316 µM
[22] = second compound 1 µM, first compound 1 µM
[23] = second compound 1 µM, first compound 3.16 µM
[24] = second compound 1 µM, first compound 10 µM
[25] = second compound 3.16 µM, first compound 0.0316 µM
[26] = second compound 3.16 µM, first compound 0.1 µM
[27] = second compound 3.16 µM, first compound 0.316 µM
[28] = second compound 3.16 µM, first compound 1 µM
[29] = second compound 3.16 µM, first compound 3.16 µM
[30] = second compound 3.16 µM, first compound 10 µM
[31] = second compound 10 µM, first compound 0.0316 µM
[32] = second compound 10 µM, first compound 0.1 µM
[33] = second compound 10 µM, first compound 0.316 µM
[34] = second compound 10 µM, first compound 1 µM
[35] = second compound 10 µM, first compound 3.16 µM
[36] = second compound 10 µM, first compound 10 µM
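Further: spheroids exposed to drugs for seven days before readout.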
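Wherever viability, T/C is given: 100% = DMSO vehicle control wells.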

## C=CC(=O)N1CCN(c2nc(=O)n(-c3c(C)ccnc3C(C)C)c3nc(-c4c(O)cccc4F)c(F)cc23)C(C)C1 (stereo unspecified) + CN1CCN(c2cc(C(=O)Nc3cc4cc(-c5cnn(C)c5)ccc4cn3)ccn2)CC1
Second compound 0.0316 µM
  IC50: > 10000 nM
Second compound 0.1 µM
  IC50: > 10000 nM
Second compound 0.316 µM
  IC50: < 31.6 nM
Second compound 1 µM
  IC50: < 31.6 nM
Second compound 3.16 µM
  IC50: < 31.6 nM
Second compound 10 µM
  IC50: < 31.6 nM
[1]
  viability, T/C: 99%
[2]
  viability, T/C: 110%
[3]
  viability, T/C: 134%
[4]
  viability, T/C: 138%
[5]
  viability, T/C: 169%
[6]
  viability, T/C: 119%
[7]
  viability, T/C: 85.5%
[8]
  viability, T/C: 92.3%
[9]
  viability, T/C: 94.7%
[10]
  viability, T/C: 116%
[11]
  viability, T/C: 113%
[12]
  viability, T/C: 82.1%
[13]
  viability, T/C: 12.1%
[14]
  viability, T/C: 18.2%
[15]
  viability, T/C: 17.9%
[16]
  viability, T/C: 17.6%
[17]
  viability, T/C: 17.6%
[18]
  viability, T/C: 7.91%
[19]
  viability, T/C: 0.24%
[20]
  viability, T/C: 0.27%
[21]
  viability, T/C: 0.3%
[22]
  viability, T/C: 0.42%
[23]
  viability, T/C: 0.52%
[24]
  viability, T/C: 2.45%
[25]
  viability, T/C: 0.88%
[26]
  viability, T/C: 0.76%
[27]
  viability, T/C: 2.22%
[28]
  viability, T/C: 1.37%
[29]
  viability, T/C: 1.55%
[30]
  viability, T/C: 1.14%
[31]
  viability, T/C: 0.53%
[32]
  viability, T/C: 0.49%
[33]
  viability, T/C: 0.4%
[34]
  viability, T/C: 0.89%
[35]
  viability, T/C: 0.88%
[36]
  viability, T/C: 1.04%

## C=C(F)C(=O)N1CCN(c2nc(OCC3CCCN3C)nc3c2CCN(c2cccc4cccc(Cl)c24)C3)CC1CC#N (stereo unspecified) + CNC(=O)c1ccc(Nc2nc(OC3CCCC3)c3c(-c4ccc5nc(C)oc5c4)c[nH]c3n2)c(OC)c1
Second compound 0.0316 µM
  IC50: 2500 nM
Second compound 0.1 µM
  IC50: < 31.6 nM
Second compound 0.316 µM
  IC50: < 31.6 nM
Second compound 1 µM
  IC50: < 31.6 nM
Second compound 3.16 µM
  IC50: < 31.6 nM
Second compound 10 µM
  IC50: < 31.6 nM
[1]
  viability, T/C: 83.1%
[2]
  viability, T/C: 88.6%
[3]
  viability, T/C: 81.8%
[4]
  viability, T/C: 132%
[5]
  viability, T/C: 38.1%
[6]
  viability, T/C: 0.16%
[7]
  viability, T/C: 24.2%
[8]
  viability, T/C: 21%
[9]
  viability, T/C: 23.7%
[10]
  viability, T/C: 27.5%
[11]
  viability, T/C: 10.2%
[12]
  viability, T/C: 0.11%
[13]
  viability, T/C: 16.6%
[14]
  viability, T/C: 19.6%
[15]
  viability, T/C: 19.9%
[16]
  viability, T/C: 18.7%
[17]
  viability, T/C: 10.1%
[18]
  viability, T/C: 0.07%
[19]
  viability, T/C: 21.5%
[20]
  viability, T/C: 15.8%
[21]
  viability, T/C: 19.4%
[22]
  viability, T/C: 18.6%
[23]
  viability, T/C: 8.14%
[24]
  viability, T/C: 0.07%
[25]
  viability, T/C: 18.5%
[26]
  viability, T/C: 14.9%
[27]
  viability, T/C: 14.8%
[28]
  viability, T/C: 20.5%
[29]
  viability, T/C: 9.57%
[30]
  viability, T/C: 1.06%
[31]
  viability, T/C: 18.1%
[32]
  viability, T/C: 21.6%
[33]
  viability, T/C: 21%
[34]
  viability, T/C: 16.9%
[35]
  viability, T/C: 7.87%
[36]
  viability, T/C: 8.64%

## O=c1[nH]cc(F)c(=O)[nH]1 + CN1CCN(c2cc(C(=O)Nc3cc4cc(-c5cnn(C)c5)ccc4cn3)ccn2)CC1
Second compound 0.0316 µM
  IC50: 3800 nM
Second compound 0.1 µM
  IC50: 3350 nM
Second compound 0.316 µM
  IC50: < 31.6 nM
Second compound 1 µM
  IC50: < 31.6 nM
Second compound 3.16 µM
  IC50: < 31.6 nM
Second compound 10 µM
  IC50: < 31.6 nM
[1]
  viability, T/C: 109%
[2]
  viability, T/C: 102%
[3]
  viability, T/C: 96.8%
[4]
  viability, T/C: 64.4%
[5]
  viability, T/C: 56.9%
[6]
  viability, T/C: 41.1%
[7]
  viability, T/C: 82.2%
[8]
  viability, T/C: 90.6%
[9]
  viability, T/C: 85.6%
[10]
  viability, T/C: 68.1%
[11]
  viability, T/C: 52.4%
[12]
  viability, T/C: 39.7%
[13]
  viability, T/C: 10.1%
[14]
  viability, T/C: 12.3%
[15]
  viability, T/C: 9.14%
[16]
  viability, T/C: 11.6%
[17]
  viability, T/C: 14.1%
[18]
  viability, T/C: 6.87%
[19]
  viability, T/C: 0.14%
[20]
  viability, T/C: 0.18%
[21]
  viability, T/C: 0.21%
[22]
  viability, T/C: 0.12%
[23]
  viability, T/C: 0.19%
[24]
  viability, T/C: 0.15%
[25]
  viability, T/C: 0.72%
[26]
  viability, T/C: 0.53%
[27]
  viability, T/C: 0.97%
[28]
  viability, T/C: 0.5%
[29]
  viability, T/C: 1.23%
[30]
  viability, T/C: 0.45%
[31]
  viability, T/C: 0.21%
[32]
  viability, T/C: 0.23%
[33]
  viability, T/C: 0.37%
[34]
  viability, T/C: 0.21%
[35]
  viability, T/C: 0.32%
[36]
  viability, T/C: 0.2%
